{"source": "patent US10206388B2", "about": "“Formulation component” (SYNGENTA LIMITED, priority 2011, dated 2019)", "format_in_all_cases": "in vivo", "key": {"[1]": {"tested_on": "Brachiaria platyphylla (BRAPL)", "experiment": "Glasshouse weed test, mesotrione with adjuvants", "details": "Table 10, Example 7: mesotrione 60 or 120 g/ha; adjuvant 0.2% v/v; Tetronic 1107 in spray tank; mean over two rates, three replicates, 7, 14 and 20 days", "description": "(§1) The aromatic ester Finsolv® TN (C12-C15 alkyl benzoate) was tested in a glasshouse against three weed species using the herbicide mesotrione. An agrochemical composition was prepared containing 0.2% v/v of the adjuvant in a track sprayer and was applied at a volume of 200 liters per hectare. Mesotrione was applied at either 60 or 120 grams of pesticide per hectare on weeds which had been grown to the 1.3 or 1.4 leaf stage. The weed species were Xanthium strumarium (XANST), Brachiaria platyphylla (BRAPL), and Digitaria sanguinalis (DIGSA). The commercially available surfactant Tetronic® 1107 was used in the spray tank at a concentration of 0.036 g/l alongside the lower concentration of mesotrione and at a concentration of 0.072 g/l at the higher concentration of mesotrione.\n(§2) Each spray test was replicated three times. The efficacy of the herbicide was assessed visually and expressed as a percentage of the leaf area killed. Samples were assessed at time periods of 7, 14 and 20 days following application. The results shown in Table 10 below are mean averages over the two rates of mesotrione, three replicates and the three assessment timings, and are compared to the efficacy of mesotrione in the absence of adjuvant and mesotrione in the presence of the well-known adjuvant Tween® 20."}, "[2]": {"tested_on": "Xanthium strumarium (XANST)", "experiment": "Glasshouse weed test, mesotrione with adjuvants", "details": "Table 10, Example 7: mesotrione 60 or 120 g/ha; adjuvant 0.2% v/v; Tetronic 1107 in spray tank; mean over two rates, three replicates, 7, 14 and 20 days", "description": "as §1, §2"}, "[3]": {"tested_on": "Digitaria sanguinalis (DIGSA)", "experiment": "Glasshouse weed test, mesotrione with adjuvants", "details": "Table 10, Example 7: mesotrione 60 or 120 g/ha; adjuvant 0.2% v/v; Tetronic 1107 in spray tank; mean over two rates, three replicates, 7, 14 and 20 days", "description": "as §1, §2"}, "[4]": {"tested_on": "three weed species (XANST, BRAPL, DIGSA)", "experiment": "Glasshouse weed test, mesotrione with adjuvants, mean across species", "details": "mean over two rates", "description": "as §1, §2\nA second experiment was conducted to assess the efficacy of Finsolv® TN as an adjuvant in compositions of mesotrione. This was carried out as outlined above, with the following change: samples were assessed at 6, 14 and 20 days post application.\nThe results shown in Table 11 below are mean averages over the two rates of mesotrione, three replicates, the three assessment timings, and the three weed species, and are compared to the efficacy of mesotrione in the absence of adjuvant and mesotrione in the presence of the well-known adjuvant Tween® 20.\nas §1, with “An” for “The aromatic ester Finsolv® TN (C12-C15 alkyl benzoate) was tested in a glasshouse against three weed species using the herbicide mesotrione. An”\nas §2, with “Brij®96. The results shown in Table 16 below are mean averages over the two rates of mesotrione, three replicates, three assessment timings and three weed species. The results are compared to the efficacy of mesotrione in the absence of an adjuvant and mesotrione in the presence of the commercially available adjuvant Brij®96.” for “Tween® 20.”\nAn agrochemical composition was prepared containing 0.2% v/v of the adjuvant in a track sprayer and was applied at a volume of 200 liters per hectare. The adjuvant oils were emulsified using a small amount of the surfactant Pluronic® PE 10500, which was present in the composition at a concentration of 0.02% v/v. Mesotrione was applied at either 60 or 120 grams of pesticide per hectare on weeds which had been grown to the 1.3 or 1.4 leaf stage. The weed species were Xanthium strumarium (XANST), Brachiaria platyphylla (BRAPL), and Digitaria sanguinalis (DIGSA). […]"}, "[5]": {"tested_on": "four weed species (POLCO, BRAPL, COMBE, DIGSA)", "experiment": "Glasshouse weed test, mesotrione with adjuvants at several rates, mean across species", "details": "Table 25, Example 21: absence of adjuvant, mesotrione 60 or 120 g/ha, Tetronic 1107, mean over two rates, three replicates, 14 and 21 days", "description": "An agrochemical composition was prepared containing either 0.2, 0.1, 0.05 or 0.025% v/v of the adjuvant in a track sprayer and was applied at a volume of 200 liters per hectare. The commercial adjuvant Tween20® was applied at 0.2% v/v. Mesotrione was applied at either 60 or 120 grams of pesticide per hectare on weeds which had been grown to the 1.3 or 1.4 leaf stage. The commercially available surfactant Tetronic® 1107 was used in the spray tank at a concentration of 0.036 g/l alongside the lower concentration of mesotrione and at a concentration of 0.072 g/l at the higher concentration of mesotrione. The weed species were Polygonum convolvulus (POLCO) 13, Brachiaria platyphylla (BRAPL) 12-13, Comelina berghalensis (COMBE) 12 and Digitaria sanguinalis (DIGSA) 13.\nEach spray test was replicated three times. The efficacy of the herbicide was assessed visually and expressed as a percentage of the leaf area killed. Samples were assessed at time periods of 14 and 21 days following application. The results shown in Table 25 below are mean averages over the two rates of mesotrione, three replicates, four weed species and the two assessment timings. The adjuvants are compared to the efficacy of mesotrione in the absence of adjuvant and mesotrione in the presence of the well-known adjuvant Tween®20."}}, "data": [{"smiles": "CS(=O)(=O)c1ccc(C(=O)C2C(=O)CCCC2=O)c([N+](=O)[O-])c1", "note": "[Mesotrione, mesotrione]", "values": [{"measurement": "Mean percentage kill BRAPL", "setting": "[1]", "value": 5.3, "unit": "B %"}, {"measurement": "Mean percentage kill XANST", "setting": "[2]", "value": 36.7, "unit": "A %"}, {"measurement": "Mean percentage kill DIGSA", "setting": "[3]", "value": 20.0, "unit": "B %"}, {"measurement": "Mean percentage kill, Mean across species", "setting": "[4]; Table 10, Example 7: mesotrione 60 or 120 g/ha, adjuvant 0.2% v/v, Tetronic 1107 in spray tank, three replicates, 7, 14 and 20 days", "value": 19.9, "unit": "B %"}, {"measurement": "Mean percentage kill, Mean across species", "setting": "[4]; Table 11, Example 7 second experiment: mesotrione 60 or 120 g/ha, adjuvant 0.2% v/v, three replicates, 6, 14 and 20 days, three weed species", "value": 33.0, "unit": "B %"}, {"measurement": "Mean percentage kill, Mean across species", "setting": "[4]; Table 16, Example 12: mesotrione 60 or 120 g/ha, adjuvant 0.2% v/v, Tetronic 1107 in spray tank, three replicates, 7, 14 and 20 days, three weed species", "value": 18.0, "unit": "C %"}, {"measurement": "Mean percentage kill, Mean across species", "setting": "[4]; Table 21, Example 17: mesotrione 60 or 120 g/ha, adjuvant 0.2% v/v emulsified with Pluronic PE 10500 0.02% v/v, Tetronic 1107, three replicates, 14 and 21 days, three weed species", "value": 19.9, "unit": "C %"}, {"measurement": "Mean percentage kill, Mean across species", "setting": "[4]; Table 29, Example 26: mesotrione 60 or 120 g/ha, adjuvant 0.2% v/v, Tetronic 1107, three replicates, 14 and 21 days, three weed species", "value": 39.4, "unit": "C %"}, {"measurement": "Mean percentage kill, Mean across species", "setting": "[4]; Table 35, Example 35: mesotrione 60 or 120 g/ha, adjuvant 0.2% v/v, Tetronic 1107, three replicates, 14 and 21 days, three weed species", "value": 33.8, "unit": "B %"}, {"measurement": "Mean percentage kill, Mean across species", "setting": "[5]", "value": 33.7, "unit": "D %"}]}]}
